Assay results as given in patent publication US20260365682A1, “MODULATORS OF TNF-ALPHA ACTIVITY” (Forward Therapeutics, Inc., priority 2022, published 2026).

Target: T1, TNF-α (Homo sapiens, UniProt P01375)
T1 construct: purchased R&D 210-TA-020/CF
Assay: TNF-α Induced HEK Blue Cellular Assay (secreted alkaline phosphatase expression, QUANTI-Blue)
Format: cell-based
Details: HEK Blue TNFα reporter cells; TNF-α 100 μg/ml; 24 hrs at 37° C.; inhibition of secreted alkaline phosphatase; read-out: IC50 value
Method in brief: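 HEK Blue TNFα reporter cells (10,000/well) in DMEM with 10% FBS received compound ([…] to 0.5 nM final) and TNF-α at […] final for 24 h at 37° C. Secreted alkaline phosphatase read with QUANTI-Blue at 620 nm. IC50 came from a 4-parameter logistic fit after normalising to unstimulated and stimulated DMSO controls.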

T1 sequence (P01375 77-233 limits assumed): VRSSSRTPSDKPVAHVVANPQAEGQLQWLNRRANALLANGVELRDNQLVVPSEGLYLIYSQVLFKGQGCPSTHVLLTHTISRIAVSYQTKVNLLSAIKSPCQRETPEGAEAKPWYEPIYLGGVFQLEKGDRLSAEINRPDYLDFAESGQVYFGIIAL

| IC50 [nM] | SMILES |
| --- | --- |
| < 100 | [2H]C([2H])([2H])N1C(=O)c2cccc(OC(F)F)c2[C@H]2C[C@@H]1c1nc3ccc(C#CC4(C)CCCN(C(C)=O)C4)cc3n12 (stereo partly drawn) [Example 225, (7R,14R)-11-((1-acetyl-3-methylpiperidin-3-yl)ethynyl)-1-(difluoromethoxy)-6-(methyl-d3)-6,7-dihydro-7,14-methanobenzo[f]benzo[4,5]imidazo[1,2-a][1,4]diazocin-5(14H)-one] |
| < 100 | [2H]C([2H])([2H])N1C(=O)c2cccc(OC(F)F)c2[C@H]2C[C@@H]1c1nc3ccc(C#CCCN4CCC(F)(F)C4)cc3n12 [Example 226, (7R,14R)-1-(difluoromethoxy)-11-(4-(3,3-difluoropyrrolidin-1-yl)but-1-yn-1-yl)-6-(methyl-d3)-6,7-dihydro-7,14-methanobenzo[f]benzo[4,5]imidazo[1,2-a][1,4]diazocin-5(14H)-one] |
| < 100 | [2H]C([2H])([2H])N1C(=O)c2cccc(OC(F)F)c2[C@H]2C[C@@H]1c1nc3ccc(C#CCCN4CC[C@@H](F)C4)cc3n12 [Example 227, (7R,14R)-1-(difluoromethoxy)-11-(4-((R)-3-fluoropyrrolidin-1-yl)but-1-yn-1-yl)-6-(methyl-d3)-6,7-dihydro-7,14-methanobenzo[f]benzo[4,5]imidazo[1,2-a][1,4]diazocin-5(14H)-one] |
| < 100 | [2H]C([2H])([2H])N1C(=O)c2cccc(OC(F)F)c2[C@H]2C[C@@H]1c1nc3ccc(C#CCCN4CC(F)C4)cc3n12 [Example 228, (7R,14R)-1-(difluoromethoxy)-11-(4-(3-fluoroazetidin-1-yl)but-1-yn-1-yl)-6-(methyl-d3)-6,7-dihydro-7,14-methanobenzo[f]benzo[4,5]imidazo[1,2-a][1,4]diazocin-5(14H)-one] |
| 100 to 1000 | [2H]C([2H])([2H])N1C(=O)c2cccc(OC(F)F)c2[C@H]2C[C@@H]1c1nc3ccc(C#CCN4CCOCC4)cc3n12 [Example 229, (7R,14R)-1-(difluoromethoxy)-6-(methyl-d3)-11-(3-morpholinoprop-1-yn-1-yl)-6,7-dihydro-7,14-methanobenzo[f]benzo[4,5]imidazo[1,2-a][1,4]diazocin-5(14H)-one] |
| < 100 | [2H]C([2H])([2H])N1C(=O)c2cccc(OC(F)F)c2[C@H]2C[C@@H]1c1nc3ccc(C#CCN4CCC(F)(F)C4)cc3n12 [Example 230, (7R,14R)-1-(difluoromethoxy)-11-(3-(3,3-difluoropyrrolidin-1-yl)prop-1-yn-1-yl)-6-(methyl-d3)-6,7-dihydro-7,14-methanobenzo[f]benzo[4,5]imidazo[1,2-a][1,4]diazocin-5(14H)-one] |
| < 100 | [2H]C([2H])([2H])N1C(=O)c2cccc(OC(F)F)c2[C@H]2C[C@@H]1c1nc3ccc(C#CCN4CC(F)(F)C4)cc3n12 [Example 231, (7R,14R)-11-(3-(3,3-difluoroazetidin-1-yl)prop-1-yn-1-yl)-1-(difluoromethoxy)-6-(methyl-d3)-6,7-dihydro-7,14-methanobenzo[f]benzo[4,5]imidazo[1,2-a][1,4]diazocin-5(14H)-one] |
| 100 to 1000 | [2H]C([2H])([2H])N1C(=O)c2cccc(OC(F)F)c2[C@H]2C[C@@H]1c1nc3ccc(C#CCN4CC(F)C4)cc3n12 [Example 232, (7R,14R)-1-(difluoromethoxy)-11-(3-(3-fluoroazetidin-1-yl)prop-1-yn-1-yl)-6-(methyl-d3)-6,7-dihydro-7,14-methanobenzo[f]benzo[4,5]imidazo[1,2-a][1,4]diazocin-5(14H)-one] |
| < 100 | [2H]C([2H])([2H])N1C(=O)c2cccc(OC(F)F)c2[C@H]2C[C@@H]1c1nc3ccc(C#CCCN4CC(F)(F)C4)cc3n12 [Example 233, (7R,14R)-11-(4-(3,3-difluoroazetidin-1-yl)but-1-yn-1-yl)-1-(difluoromethoxy)-6-(methyl-d3)-6,7-dihydro-7,14-methanobenzo[f]benzo[4,5]imidazo[1,2-a][1,4]diazocin-5(14H)-one] |
| < 100 | [2H]C([2H])([2H])N1C(=O)c2cccc(OC(F)F)c2[C@H]2C[C@@H]1c1nc3ccc(C#CC4CCN(C5CC5)C4)cc3n12 (stereo partly drawn) [Example 234, (7R,14R)-11-((1-cyclopropylpyrrolidin-3-yl)ethynyl)-1-(difluoromethoxy)-6-(methyl-d3)-6,7-dihydro-7,14-methanobenzo[f]benzo[4,5]imidazo[1,2-a][1,4]diazocin-5(14H)-one] |
| < 100 | [2H]C([2H])([2H])N1C(=O)c2cccc(OC(F)F)c2[C@H]2C[C@@H]1c1nc3ccc(C#CCN4CC[C@H](F)C4)cc3n12 [Example 235, (7R,14R)-1-(difluoromethoxy)-11-(3-((S)-3-fluoropyrrolidin-1-yl)prop-1-yn-1-yl)-6-(methyl-d3)-6,7-dihydro-7,14-methanobenzo[f]benzo[4,5]imidazo[1,2-a][1,4]diazocin-5(14H)-one] |
| < 100 | [2H]C([2H])([2H])N1C(=O)c2cccc(OC(F)F)c2[C@H]2C[C@@H]1c1nc3ccc(C#CCN4CC[C@@H](F)C4)cc3n12 [Example 236, (7R,14R)-1-(difluoromethoxy)-11-(3-((R)-3-fluoropyrrolidin-1-yl)prop-1-yn-1-yl)-6-(methyl-d3)-6,7-dihydro-7,14-methanobenzo[f]benzo[4,5]imidazo[1,2-a][1,4]diazocin-5(14H)-one] |
| < 100 | [2H]C([2H])([2H])N1C(=O)c2cccc(OC(F)F)c2[C@H]2C[C@@H]1c1nc3ccc(C#CC4CCN(C5COC5)C4)cc3n12 (stereo partly drawn) [Example 237, (7R,14R)-1-(difluoromethoxy)-6-(methyl-d3)-11-((1-(oxetan-3-yl)pyrrolidin-3-yl)ethynyl)-6,7-dihydro-7,14-methanobenzo[f]benzo[4,5]imidazo[1,2-a][1,4]diazocin-5(14H)-one] |
| < 100 | [2H]C([2H])([2H])N1C(=O)c2cccc(OC(F)F)c2[C@H]2C[C@@H]1c1nc3ccc(C#CC4CN(C(C)C(F)F)C4)cc3n12 (stereo partly drawn) [Example 238, (7R,14R)-1-(difluoromethoxy)-11-((1-(1,1-difluoropropan-2-yl)azetidin-3-yl)ethynyl)-6-(methyl-d3)-6,7-dihydro-7,14-methanobenzo[f]benzo[4,5]imidazo[1,2-a][1,4]diazocin-5(14H)-one] |
| < 100 | [2H]C([2H])([2H])N1C(=O)c2cccc(OC(F)F)c2[C@H]2C[C@@H]1c1nc3ccc(C#CC(F)F)cc3n12 [Example 247, (7R,14R)-1-(difluoromethoxy)-11-(3,3-difluoroprop-1-yn-1-yl)-6-(methyl-d3)-6,7-dihydro-7,14-methanobenzo[f]benzo[4,5]imidazo[1,2-a][1,4]diazocin-5(14H)-one] |

Same assay, conditions: IC50 value, HEK Blue TNFα reporter cells; TNF-α 100 μg/ml; 24 hrs at 37° C.; inhibition of secreted alkaline phosphatase

| IC50 [nM] | SMILES |
| --- | --- |
| < 100 | [2H]C([2H])([2H])N1C(=O)c2cccc(OC(F)F)c2[C@H]2C[C@@H]1c1nc3ccc(C#CCNC4CC4)cc3n12 [Example 241, (7R,14R)-11-(3-(cyclopropylamino)prop-1-yn-1-yl)-1-(difluoromethoxy)-6-(methyl-d3)-6,7-dihydro-7,14-methanobenzo[f]benzo[4,5]imidazo[1,2-a][1,4]diazocin-5(14H)-one] |
| < 100 | [2H]C([2H])([2H])N1C(=O)c2cccc(OC(F)F)c2[C@H]2C[C@@H]1c1nc3ccc(C#CCNC4COC4)cc3n12 [Example 242, (7R,14R)-1-(difluoromethoxy)-6-(methyl-d3)-11-(3-(oxetan-3-ylamino)prop-1-yn-1-yl)-6,7-dihydro-7,14-methanobenzo[f]benzo[4,5]imidazo[1,2-a][1,4]diazocin-5(14H)-one] |
